According to patent publication US4746729A, “Cartilage-derived leukocyte elastase-inhibitor” (priority 1986, dated 1988):

Test system: PMN-Elastase
Test: PMN-Elastase inhibition assay with chromogenic substrate
Format: biochemical, human
Details: substrate methoxysuccinyl-Ala-Ala-Pro-Val-p-nitroanilide, 405 nm absorption, semiquantitative
Method: PMN-Elastase was isolated and purified from human neutrophile as depicted in Recent Advances In Connective Tissue Research, 1986, Bukhauser Verlag, Basel, Boston, Stuttgart, C. Arsenis, E. S.-M. A. Thomar, and K. E. Kuettner, pages 63-68, incorporated herein by reference. It has essentially no cathepsin-G activity. The enzyme was tested against its natural substrates, such as type IV collagen, insoluble amorphous elastin, and against the specific synthetic substrate Methoxysuccinyl-L-Alanyl-L-Alanyl-L-Prolyl-L-Valyl-p-nitro-anilide, from which a DMSO stock solution was made. See The Journal of Bioloqical Chemistry, Vol. 254, pp. 4027-4032, 1979, K. Nakajima, J. C. Powers, B. M. Ashe, and M. Zimmerman, incorporated herein by reference. Aliquots were diluted with assay buffer for each measurement.
30 microliters (2.5-15 micrograms protein/ml) of PMN-Elastase was poured into a 96 well-plate, and 70 microliters of sample were added and incubated for 30 minutes at 30° C. After addition of 100 microliters substrate solution (methoxy-succinyl-L-Alanyl-L-Alanyl-L-Prolyl-L-Valyl-p-nitroanilide) in DMSO, dilution to 3 mM was effected with a buffer solution of 20 mM Tris and 500 mM NaCl at pH 7.3 (final DMSO concentration 10%). […] By varying the enzyme quantities, semiquantitative relationships were obtained.

## serum albumin: 68 KD blood contaminant in the high molecular weight fraction of the cartilage extract
  PMN-Elastase inhibitory activity: inhibit the PMN-Elastase to a certain extent
